This note sets out measurements from article PMC7695847, “The structural basis of promiscuity in small multidrug resistance transporters” (Nature Communications, 2020).

The target of experiment [1] is T1, EmrE (Escherichia coli, UniProt P23895).
T1 construct: full-length; N-terminal His6 tag with thrombin site; expressed in E. coli; homodimer; reconstituted in proteoliposomes
Briefly: SSM electrophysiology, proteoliposomes. It is filed as biochemical. Conditions: 1 mM; pH 7.5; reference compound for normalisation.

The subject of another experiment is T2, Gdx-Clo.
T2 construct: gene HMPREF1982_00479; full-length; C-terminal His6 tag with LysC site, tag cleaved by LysC; expressed in E. coli C41(DE3); antiparallel homodimer
Briefly: […]-Gdm+ uptake and SSM electrophysiology, proteoliposomes. Conditions: 20 µM 14C-Gdm+ or 1 mM (SSM); pH 7.5; labelled compound. The experiment is classed as biochemical, Clostridiales bacterium oral taxon 876.

For experiment [2], the target named is T1, EmrE. Briefly: […]-methyl viologen uptake into proteoliposomes. It is filed as biochemical. Conditions: 7 µM 14C-methyl viologen; pH 7.5; labelled compound.

Each structure is given as a SMILES string.

T1 sequence (P23895 whole entry): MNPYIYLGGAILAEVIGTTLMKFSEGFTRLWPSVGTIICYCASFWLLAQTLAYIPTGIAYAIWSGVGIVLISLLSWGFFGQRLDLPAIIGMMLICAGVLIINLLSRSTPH
T2 sequence (U2EQ00 entry or part of it): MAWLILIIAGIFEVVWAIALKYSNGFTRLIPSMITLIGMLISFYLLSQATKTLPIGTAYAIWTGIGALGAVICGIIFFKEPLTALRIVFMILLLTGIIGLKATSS

Consider `N=C(N)Nc1ccccc1` [phenylGdm^+], for which the “SSM electrophysiology, proteoliposomes” value at EmrE [1] is “methyl-, ethyl-, and phenylGdm^+ evoked increasingly larger currents”.

For the molecule `N=C(N)N` [Gdm^+], in the experiment on Gdx-Clo, the “14C-Gdm+ uptake and SSM electrophysiology, proteoliposomes” value was “Gdx-Clo transports Gdm^+, but not methyl viologen”.

In the case of `C[n+]1ccc(-c2cc[n+](C)cc2)cc1` [methyl viologen], the “14C-methyl viologen uptake into proteoliposomes” value at EmrE [2] is reported as “EmrE transports methyl viologen, but not Gdm^+”.
